We go through 17 molecules from patent US11319299B2, “Substituted carboxamides as inhibitors of WDR5 protein-protein binding” (PROPELLON THERAPEUTICS INC., priority 2016, dated 2022).

For one assay, the target named is WDR5 (Homo sapiens (Human), UniProt P61964). The assay is described as follows: Surface Plasmon Resonance (SPR) assay, KD and residence time. Format: binding. The conditions noted are these: surface plasmon resonance (SPR) assay; read-out: WDR5 binding affinity (KD).
The term Kd denotes the equilibrium constant for the complex coming apart. Consider `C[C@@H]1CN(c2cc(F)c(C3=CCN(C(=O)C(C)(C)C)CC3)cc2NC(=O)c2c[nH]c(=O)cc2C(F)(F)F)C[C@H](C)N1C` [Example 243, N-[5-[1-(2,2-dimethylpropanoyl)-3,6-dihydro-2H-pyridin-4-yl]-4-fluoro-2-[(3R,5S)-3,4,5-trimethylpiperazin-1-yl]phenyl]-6-oxo-4-(trifluoromethyl)-1H-pyridine-3-carboxamide], for which the Kd worked out at 2.16 nM. As to `Cc1ncc(C(=O)Nc2cc(-c3cnc(N4CCOCC4)nc3)c(F)cc2N2CCN(C)C(C)C2)s1` (stereo in doubt) [Example 195, N-[4-fluoro-5-(2-morpholin-4-ylpyrimidin-5-yl)-2-[(3R)-3,4-dimethylpiperazin-1-yl]phenyl]-2-methyl-1,3-thiazole-5-carboxamide], the Kd is 106 nM.

As to `C[C@@H]1CN(c2cc(F)c(-c3cnc(N(C)C)c(C#N)c3)cc2NC(=O)c2c[nH]c(=O)cc2C(F)(F)F)C[C@H](C)N1C` [Example 220, N-[5-[5-cyano-6-(dimethylamino)pyridin-3-yl]-4-fluoro-2-[(3R,5S)-3,4,5-trimethylpiperazin-1-yl]phenyl]-6-oxo-4-(trifluoromethyl)-1H-pyridine-3-carboxamide], the Kd was 2.25 nM.

Staying with this assay, now noted: surface plasmon resonance (SPR); read-out: WDR5 binding affinity (KD).
`C[C@@H]1CN(c2cc(F)c(-c3cnc(N4CCOC[C@H]4C)nc3)cc2NC(=O)c2cn(C)c(=O)cc2C(F)F)CCN1C` (stereo in doubt) [Example 607, 4-(difluoromethyl)-N-[4-fluoro-2-[(3R)-3,4-dimethylpiperazin-1-yl]-5-[2-[(3R)-3-methylmorpholin-4-yl]pyrimidin-5-yl]phenyl]-1-methyl-6-oxopyridine-3-carboxamide]: the Kd came to 1.53 nM.

As for `C[C@@H]1CN(c2cc(F)c(-c3cnc(N4CCOC[C@H]4C)nc3)cc2NC(=O)c2c[nH]c(=O)cc2C(F)F)CCN1C` (stereo in doubt) [Example 628, 4-(difluoromethyl)-N-[4-fluoro-2-[(3R)-3,4-dimethylpiperazin-1-yl]-5-[2-[(3R)-3-methylmorpholin-4-yl]pyrimidin-5-yl]phenyl]-6-oxo-1H-pyridine-3-carboxamide], the Kd turned out to be 1.25 nM. As to `CC(C)OC(=O)N1CCC=C(c2cc(NC(=O)c3c[nH]c(=O)cc3C(F)F)c(N3C[C@@H](C)N(C)[C@@H](C)C3)cc2F)C1` [Example 725, propan-2-yl 5-[5-[[4-(difluoromethyl)-6-oxo-1H-pyridine-3-carbonyl]amino]-2-fluoro-4-[(3R,5S)-3,4,5-trimethylpiperazin-1-yl]phenyl]-3,6-dihydro-2H-pyridine-1-carboxylate], the Kd worked out at 1.59 nM. As to `C[C@@H]1CN(c2cc(F)c(-c3cccc4scnc34)cc2NC(=O)c2cn(C)c(=O)cc2C(F)F)C[C@H](C)N1C` [Example 682, N-[5-(1,3-benzothiazol-4-yl)-4-fluoro-2-[(3R,5S)-3,4,5-trimethylpiperazin-1-yl]phenyl]-4-(difluoromethyl)-1-methyl-6-oxopyridine-3-carboxamide], the Kd was determined as 20.4 nM. With `C[C@@H]1CN(c2ccc(-c3cc(NC(=O)c4cn(C)c(=O)cc4C(F)F)c(N4CCN(C)[C@@H](C)C4)cc3F)cn2)C[C@H](C)O1` [Example 515, 4-(difluoromethyl)-N-[4-fluoro-5-[6-[(2R,6S)-2,6-dimethylmorpholin-4-yl]pyridin-3-yl]-2-[(3S)-3,4-dimethylpiperazin-1-yl]phenyl]-1-methyl-6-oxopyridine-3-carboxamide], the Kd turned out to be 4.09 nM. Turning to `C[C@@H]1CN(c2cc(F)c(-c3cc(C(=O)NC(C)(C)CC(C)(C)C)c(F)cc3F)cc2NC(=O)c2c[nH]c(=O)cc2C(F)F)C[C@H](C)N1C` [Example 627, 4-(difluoromethyl)-N-[5-[2,4-difluoro-5-(2,4,4-trimethylpentan-2-ylcarbamoyl)phenyl]-4-fluoro-2-[(3R,5S)-3,4,5-trimethylpiperazin-1-yl]phenyl]-6-oxo-1H-pyridine-3-carboxamide], the Kd worked out at 23.3 nM.

Take `C[C@@H]1CN(c2cc(F)c(C3=CCCN(C(=O)OC4(C)CCC4)CC3)cc2NC(=O)c2c[nH]c(=O)cc2C(F)F)C[C@H](C)N1C` [Example 729, (1-methylcyclobutyl) 4-[5-[[4-(difluoromethyl)-6-oxo-1H-pyridine-3-carbonyl]amino]-2-fluoro-4-[(3R,5S)-3,4,5-trimethylpiperazin-1-yl]phenyl]-2,3,6,7-tetrahydroazepine-1-carboxylate]: the Kd came to 3.11 nM. With `C[C@@H]1CN(c2ccc(-c3cc(NC(=O)c4cn(C)c(=O)cc4C(F)F)c(N4C[C@@H](C)N(C)[C@@H](C)C4)cc3F)cn2)CCO1` [Example 542, 4-(difluoromethyl)-N-[4-fluoro-5-[6-[(2R)-2-methylmorpholin-4-yl]pyridin-3-yl]-2-[(3R,5S)-3,4,5-trimethylpiperazin-1-yl]phenyl]-1-methyl-6-oxopyridine-3-carboxamide], the Kd amounted to 5.53 nM.

Take `C[C@@H]1CN(c2cc(F)c(-c3ncc(C(=O)NCC4CC4)s3)cc2NC(=O)c2c[nH]c(=O)cc2C(F)(F)F)C[C@H](C)N1C` [Example 496, N-(cyclopropylmethyl)-2-[2-fluoro-5-[[6-oxo-4-(trifluoromethyl)-1H-pyridine-3-carbonyl]amino]-4-[(3R,5S)-3,4,5-trimethylpiperazin-1-yl]phenyl]-1,3-thiazole-5-carboxamide]: the Kd worked out at 3.03 nM. The same measure, in the same setting: the value for `CC(C)N1CCN(c2ncc(-c3cc(NC(=O)c4cn(C)c(=O)cc4C(F)(F)F)c(N4C[C@@H](C)N(C)[C@@H](C)C4)cc3F)cn2)CC1` [Example 661, N-[4-fluoro-5-[2-(4-propan-2-ylpiperazin-1-yl)pyrimidin-5-yl]-2-[(3R,5S)-3,4,5-trimethylpiperazin-1-yl]phenyl]-1-methyl-6-oxo-4-(trifluoromethyl)pyridine-3-carboxamide] was 3.23 nM. Take `C[C@@H]1COCCN1c1ncc(-c2cc(NC(=O)c3c[nH]c(=O)cc3C(F)(F)F)c(N3CCN(C)[C@@H](C)C3)cc2F)cn1` [Example 468, N-[4-fluoro-2-[(3S)-3,4-dimethylpiperazin-1-yl]-5-[2-[(3R)-3-methylmorpholin-4-yl]pyrimidin-5-yl]phenyl]-6-oxo-4-(trifluoromethyl)-1H-pyridine-3-carboxamide]: the Kd stood at 2.28 nM. The same measure, in the same setting: to `COCCCN(C)C1CCN(c2cc(F)c(-c3cnc(N4CCOCC4)nc3)cc2NC(=O)c2c[nH]c(=O)cc2C(F)(F)F)C1` (centres unmarked) [Example 572, N-[4-fluoro-2-[3-[3-methoxypropyl(methyl)amino]pyrrolidin-1-yl]-5-(2-morpholin-4-ylpyrimidin-5-yl)phenyl]-6-oxo-4-(trifluoromethyl)-1H-pyridine-3-carboxamide] belongs 113 nM; to `CC(C)N1CCN(c2ncc(-c3cc(NC(=O)c4ccc(F)cc4C(F)(F)F)c(N4C[C@@H](C)N(C)[C@@H](C)C4)cc3F)cn2)CC1` [Example 466, 4-fluoro-N-[4-fluoro-5-[2-(4-propan-2-ylpiperazin-1-yl)pyrimidin-5-yl]-2-[(3R,5S)-3,4,5-trimethylpiperazin-1-yl]phenyl]-2-(trifluoromethyl)benzamide], 2.28 nM. The same measure, in the same setting: to `COc1cnc(N2CC=C(c3cc(NC(=O)c4c[nH]c(=O)cc4C(F)(F)F)c(N4C[C@@H](C)N(C)[C@@H](C)C4)cc3F)C2)nc1` [Example 437, N-[4-fluoro-5-[1-(5-methoxypyrimidin-2-yl)-2,5-dihydropyrrol-3-yl]-2-[(3R,5S)-3,4,5-trimethylpiperazin-1-yl]phenyl]-6-oxo-4-(trifluoromethyl)-1H-pyridine-3-carboxamide] belongs 0.721 nM.
